In ChEMBL document CHEMBL1135080, “Pyridazine based inhibitors of p38 MAPK” (Bioorg Med Chem Lett, 2002):

Tests used:
MAP kinase p38 [1] = molecular target: T1, MAP kinase p38 (Homo sapiens, UniProt O15264+Q15759+Q16539+P53778); experiment: Inhibition of Mitogen-activated protein kinase p38; type: protein assay
[2] = molecular target: T2, Mitogen-activated protein kinase 9 (Homo sapiens, UniProt P45984); experiment: Inhibition of JNK2-alpha-1 kinase
[3] = molecular target: RAF proto-oncogene serine/threonine-protein kinase (Homo sapiens) (UniProt P04049); experiment: Inhibition of c-Raf kinase at 5000 nM
[4] = molecular target: T2, Mitogen-activated protein kinase 9; experiment: Inhibition of JNK2-alpha-2 kinase
[5] = molecular target: Tyrosine-protein kinase Lck (Homo sapiens) (UniProt P06239); experiment: Inhibition of LCK1 kinase at 15000 nM
MAP kinase p38 [6] = molecular target: T1, MAP kinase p38; experiment: Inhibition of Mitogen-activated protein kinase p38 at 1000 nM; type: protein assay

T2 sequence (P45984 whole entry): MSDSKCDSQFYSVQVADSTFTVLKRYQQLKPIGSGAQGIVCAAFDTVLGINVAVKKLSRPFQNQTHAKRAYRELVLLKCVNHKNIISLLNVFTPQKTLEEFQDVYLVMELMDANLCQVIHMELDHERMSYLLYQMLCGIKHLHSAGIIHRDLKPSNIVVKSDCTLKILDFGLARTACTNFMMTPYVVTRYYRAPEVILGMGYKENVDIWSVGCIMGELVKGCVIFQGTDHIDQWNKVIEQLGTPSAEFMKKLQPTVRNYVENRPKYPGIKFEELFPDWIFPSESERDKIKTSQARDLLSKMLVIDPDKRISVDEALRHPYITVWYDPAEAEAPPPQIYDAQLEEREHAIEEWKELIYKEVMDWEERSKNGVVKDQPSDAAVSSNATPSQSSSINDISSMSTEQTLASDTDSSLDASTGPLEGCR
Chain of Tyrosine-protein kinase Lck (Homo sapiens) (P06239 2-509 limits assumed): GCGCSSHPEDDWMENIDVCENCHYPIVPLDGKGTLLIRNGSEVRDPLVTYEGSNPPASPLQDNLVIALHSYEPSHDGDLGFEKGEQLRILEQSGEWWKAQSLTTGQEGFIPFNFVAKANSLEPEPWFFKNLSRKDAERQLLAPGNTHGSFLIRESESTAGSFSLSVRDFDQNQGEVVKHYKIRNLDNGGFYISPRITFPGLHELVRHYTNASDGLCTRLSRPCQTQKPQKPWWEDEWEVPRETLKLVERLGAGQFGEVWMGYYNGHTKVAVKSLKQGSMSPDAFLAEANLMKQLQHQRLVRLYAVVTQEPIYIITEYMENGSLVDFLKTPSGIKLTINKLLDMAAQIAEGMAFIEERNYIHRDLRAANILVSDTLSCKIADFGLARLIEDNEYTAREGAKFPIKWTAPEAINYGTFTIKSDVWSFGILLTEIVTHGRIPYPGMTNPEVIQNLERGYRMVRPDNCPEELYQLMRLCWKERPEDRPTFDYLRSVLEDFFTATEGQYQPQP
Chain of RAF proto-oncogene serine/threonine-protein kinase (Homo sapiens) (P04049 whole entry): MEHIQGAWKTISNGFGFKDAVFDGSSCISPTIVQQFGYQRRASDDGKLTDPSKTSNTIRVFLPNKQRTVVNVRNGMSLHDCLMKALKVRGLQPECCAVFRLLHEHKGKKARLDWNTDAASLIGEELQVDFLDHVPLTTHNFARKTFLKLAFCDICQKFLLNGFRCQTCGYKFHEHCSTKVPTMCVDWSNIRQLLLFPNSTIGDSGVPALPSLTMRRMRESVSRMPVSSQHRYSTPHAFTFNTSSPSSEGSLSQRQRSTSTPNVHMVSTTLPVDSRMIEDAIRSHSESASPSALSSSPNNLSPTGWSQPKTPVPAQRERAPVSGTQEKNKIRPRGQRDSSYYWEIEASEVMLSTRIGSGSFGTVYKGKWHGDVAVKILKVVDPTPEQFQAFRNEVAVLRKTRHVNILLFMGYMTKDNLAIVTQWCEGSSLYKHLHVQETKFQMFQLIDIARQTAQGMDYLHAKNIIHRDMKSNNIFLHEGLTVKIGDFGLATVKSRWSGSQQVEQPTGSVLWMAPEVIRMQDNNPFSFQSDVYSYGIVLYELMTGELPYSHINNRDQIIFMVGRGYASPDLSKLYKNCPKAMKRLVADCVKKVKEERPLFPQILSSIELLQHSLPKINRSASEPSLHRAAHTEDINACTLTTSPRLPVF

SMILES: C[C@H](Nc1nccc(-c2nc(C3CCNCC3)n(C)c2-c2cccc(C(F)(F)F)c2)n1)c1ccccc1
- IC50 (MAP kinase p38 [1]): 12 µM

SMILES: C[C@H](Nc1nccc(-c2cc(N3CCOCC3)nnc2-c2cccc(C(F)(F)F)c2)n1)c1ccccc1
- IC50 [2]: 0.82 µM
- inhibition [3]: 29%
- IC50 [4]: 1.4 µM
- IC50 (MAP kinase p38 [1]): 0.0026 µM
- inhibition [5]: 22%

SMILES: C[C@H](Nc1nccc(-c2cc(N(C)CCN(C)C)nnc2-c2cccc(C(F)(F)F)c2)n1)c1ccccc1
- IC50 (MAP kinase p38 [1]): 0.0014 µM

SMILES: C[C@H](Nc1nccc(-c2nnc(C3CCNCC3)cc2-c2cccc(C(F)(F)F)c2)n1)c1ccccc1
- inhibition (MAP kinase p38 [6]): 4.81%

SMILES: C[C@H](Nc1nccc(-c2cc(N3CCCCC3)nnc2-c2cccc(C(F)(F)F)c2)n1)c1ccccc1
- IC50 (MAP kinase p38 [1]): 0.0201 µM

SMILES: C[C@H](Nc1nccc(-c2cc(N3CCN(C)CC3)nnc2-c2cccc(C(F)(F)F)c2)n1)c1ccccc1
- IC50 (MAP kinase p38 [1]): 0.0019 µM

SMILES: C[C@H](Nc1nccc(-c2cc(N(C)C)nnc2-c2cccc(C(F)(F)F)c2)n1)c1ccccc1
- IC50 (MAP kinase p38 [1]): 0.0025 µM

SMILES: C[C@H](Nc1nccc(-c2cc(N3CCNCC3)nnc2-c2cccc(C(F)(F)F)c2)n1)c1ccccc1
- IC50 (MAP kinase p38 [1]): 0.0006 µM

SMILES: CC1CCN(c2cc(-c3ccnc(N[C@@H](C)c4ccccc4)n3)c(-c3cccc(C(F)(F)F)c3)nn2)CC1
- IC50 (MAP kinase p38 [1]): 0.0074 µM
